# Source: PubChem BioAssay (NCI)
#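 Tested at 5 concentrations; 48 h exposure; 96-well plates; endpoints linearly interpolated, else capped at highest concentration. GI50: concentration for 50% inhibition of growth. At the TGI there is no net growth.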
# What was measured:
# Assay in all cases: NCI anticancer screen, dose series, 48 h
# SK-MEL-28 melanoma = system: SK-MEL-28 melanoma
# CAKI-1 renal = system: CAKI-1 renal
# MALME-3M melanoma = system: MALME-3M melanoma
# COLO 205 colon = system: COLO 205 colon
# U251 CNS = system: U251 CNS
# A498 renal = system: A498 renal
# TK-10 renal = system: TK-10 renal
# NCI/ADR-RES ovarian = system: NCI/ADR-RES ovarian
# CCRF-CEM leukemia = system: CCRF-CEM leukemia
# PC-3 prostate = system: PC-3 prostate
smiles,measurement,setting,value
CCOC(=O)/C=C(\C)c1ccc(OC)cc1,TGI,SK-MEL-28 melanoma,> 100 µM
same,TGI,CAKI-1 renal,> 100 µM
same,TGI,MALME-3M melanoma,> 100 µM
same,TGI,COLO 205 colon,> 100 µM
same,TGI,U251 CNS,> 100 µM
same,TGI,A498 renal,> 100 µM
same,TGI,TK-10 renal,> 100 µM
Cc1ccc(S(N)(=O)=O)cc1,TGI,NCI/ADR-RES ovarian,> 1000 µM
same,TGI,CCRF-CEM leukemia,> 1000 µM
same,TGI,MALME-3M melanoma,> 1000 µM
same,TGI,COLO 205 colon,> 1000 µM
same,TGI,U251 CNS,> 1000 µM
same,TGI,A498 renal,> 1000 µM
same,TGI,PC-3 prostate,> 1000 µM
same,TGI,TK-10 renal,> 1000 µM
NCc1ccc(C(=O)O)cc1,TGI,NCI/ADR-RES ovarian,> 100 µM
same,TGI,SK-MEL-28 melanoma,> 100 µM
same,TGI,CAKI-1 renal,> 100 µM
same,TGI,MALME-3M melanoma,> 100 µM
same,TGI,U251 CNS,> 100 µM
same,TGI,A498 renal,> 100 µM
same,TGI,PC-3 prostate,> 100 µM
same,TGI,TK-10 renal,> 100 µM
COc1cc(C2c3cc4c(cc3[C@@H](Nc3cccc(C(C)=O)c3)C3COC(=O)[C@H]23)OCO4)cc(OC)c1O (stereo partly drawn),TGI,NCI/ADR-RES ovarian,> 100 µM
same,TGI,SK-MEL-28 melanoma,50.6 µM
same,TGI,CAKI-1 renal,2.13 µM
same,TGI,CCRF-CEM leukemia,0.231 µM
same,TGI,MALME-3M melanoma,15 µM
same,TGI,COLO 205 colon,5.05 µM
same,TGI,U251 CNS,9.97 µM
same,TGI,A498 renal,1.6 µM
Brc1ccccc1-c1ncc(-c2ccccc2)o1,TGI,NCI/ADR-RES ovarian,> 100 µM
same,TGI,SK-MEL-28 melanoma,> 100 µM
same,TGI,CAKI-1 renal,> 100 µM
same,TGI,CCRF-CEM leukemia,54.7 µM
same,TGI,MALME-3M melanoma,76.3 µM
same,TGI,COLO 205 colon,39.5 µM
same,TGI,U251 CNS,44.2 µM
same,TGI,A498 renal,60.5 µM
same,TGI,PC-3 prostate,> 100 µM
same,TGI,TK-10 renal,> 100 µM
COc1ccc(-c2cc(N3CCN(c4ccccc4)CC3)c(C#N)c(=O)o2)cc1,TGI,SK-MEL-28 melanoma,77.6 µM
same,TGI,CAKI-1 renal,53.9 µM
same,TGI,CCRF-CEM leukemia,> 100 µM
same,TGI,MALME-3M melanoma,53.7 µM
same,TGI,COLO 205 colon,> 100 µM
same,TGI,U251 CNS,> 100 µM
same,TGI,A498 renal,64.9 µM
same,TGI,TK-10 renal,58 µM
N#Cc1c(NC(=S)NC(=O)c2ccccc2)nc2c(c1-c1ccccc1)CCCC2,TGI,NCI/ADR-RES ovarian,> 100 µM
same,TGI,SK-MEL-28 melanoma,> 100 µM
same,TGI,CAKI-1 renal,> 100 µM
same,TGI,CCRF-CEM leukemia,> 100 µM
same,TGI,COLO 205 colon,> 100 µM
same,TGI,U251 CNS,> 100 µM
same,TGI,PC-3 prostate,> 100 µM
same,TGI,TK-10 renal,> 100 µM
CCC(C)C(=O)c1c(O)c(C/C=C(\C)CCC=C(C)C)c(O)c2c(C(O)CC)cc(=O)oc12 (stereo not drawn),TGI,SK-MEL-28 melanoma,5.57 µM
same,TGI,CAKI-1 renal,12.1 µM
same,TGI,CCRF-CEM leukemia,3.44 µM
same,TGI,MALME-3M melanoma,5.28 µM
same,TGI,COLO 205 colon,7.27 µM
same,TGI,U251 CNS,9.67 µM
same,TGI,A498 renal,6.15 µM
same,TGI,TK-10 renal,13.1 µM
CC(C)(Br)C1(O)CCCN1C(=O)c1ccccc1 (stereo not drawn),TGI,SK-MEL-28 melanoma,> 100 µM
same,TGI,CCRF-CEM leukemia,> 100 µM
same,TGI,MALME-3M melanoma,> 100 µM
same,TGI,COLO 205 colon,> 100 µM
same,TGI,U251 CNS,> 100 µM
same,TGI,A498 renal,> 100 µM
same,TGI,TK-10 renal,> 100 µM
C#CC[C@@H]1C[C@]2(C)[C@H]3CC=C4[C@H]5CC(C)(C)CC[C@]5(C(=O)NCCCCN)CC[C@@]4(C)[C@]3(C)CC[C@H]2C(C)(C)[C@H]1OC(C)=O,GI50,SK-MEL-28 melanoma,1.74 µM
same,TGI,SK-MEL-28 melanoma,3.17 µM
same,GI50,CAKI-1 renal,1.54 µM
same,TGI,CAKI-1 renal,2.9 µM
same,GI50,CCRF-CEM leukemia,1.93 µM
same,TGI,CCRF-CEM leukemia,4.55 µM
same,GI50,MALME-3M melanoma,1.55 µM
same,TGI,MALME-3M melanoma,3.04 µM
same,GI50,COLO 205 colon,1.72 µM
same,TGI,COLO 205 colon,3.32 µM
same,GI50,U251 CNS,1.69 µM
same,TGI,U251 CNS,3.21 µM
same,GI50,A498 renal,1.8 µM
same,TGI,A498 renal,3.21 µM
same,GI50,PC-3 prostate,1.55 µM
same,TGI,PC-3 prostate,2.93 µM
ClCc1c(Cl)c(Cl)c(Cl)c(CCl)c1Cl,GI50,NCI/ADR-RES ovarian,3.5 µM
same,TGI,NCI/ADR-RES ovarian,17.3 µM
same,GI50,SK-MEL-28 melanoma,1.95 µM
same,TGI,SK-MEL-28 melanoma,3.96 µM
same,GI50,CAKI-1 renal,1.68 µM
same,TGI,CAKI-1 renal,3.1 µM
same,GI50,CCRF-CEM leukemia,0.841 µM
same,TGI,CCRF-CEM leukemia,3.28 µM
same,GI50,MALME-3M melanoma,1.55 µM
same,TGI,MALME-3M melanoma,3.79 µM
same,GI50,COLO 205 colon,1.83 µM
same,TGI,COLO 205 colon,3.33 µM
same,GI50,U251 CNS,1.71 µM
same,TGI,U251 CNS,3.08 µM
same,GI50,A498 renal,2.45 µM
same,TGI,A498 renal,12.5 µM
same,GI50,PC-3 prostate,1.69 µM
same,TGI,PC-3 prostate,3.15 µM
same,GI50,TK-10 renal,1.56 µM
same,TGI,TK-10 renal,2.89 µM
CCO/N=[N+](\[O-])N(CC)CC,TGI,SK-MEL-28 melanoma,> 100 µM
same,TGI,CAKI-1 renal,> 100 µM
same,TGI,CCRF-CEM leukemia,> 100 µM
same,TGI,A498 renal,> 100 µM
same,TGI,TK-10 renal,> 100 µM
